{"source": "patent US4559326A", "about": "“Antiinflammatory compositions and methods” (Pfizer Inc., priority 1985, dated 1985)", "tested_on": "Gastric lesions induced by the ethanolamine salt of piroxicam", "assay": "Protective effect of inositol on piroxicam-induced gastric lesions in rats", "assay_type": "in vivo, rat (CD strain, Sprague-Dawley)", "conditions": "for Significance p < 0.05: two-tailed Student's t-test; for Lesions/Rat (X +/- SE): mean (SE)", "method": "Adult male \"specific pathogen free\" rats weighing 140-160 grams of the CD strain (Sprague-Dawley) were obtained from Charles River Breeding Laboratories (Kingston, N.Y.). The animals were acclimated for approximately one week and tested when they reached a body weight of 200-225 grams. The rats were fasted for 16 hours and randomized into groups consisting of 8 to 20 animals which were normalized with regard to their average body weight.\nGastric ulcers were induced in the animals by orally dosing them with a single 120 mg/kg dose of piroxicam (ethanolamine salt) in 2 ml. of aqueous 0.1% methylcellulose (pH=6.8). Those animals receiving a second medicinal agent separately received the second drug in an additional 2 ml. of the same medium at about the same time. Six and one-half hours later, the animals were sacrificed by cervical dislocation and autopsied. The stomachs were surgically removed, dissected along the greater curvature and rinsed with cold water. The stomachs were individually scored for both linear and punctate lesions. The total number of lesions was used for scoring purposes. The data obtained from each group of rats were analyzed after calculation of the mean number +/- the standard error of total gastric lesions. The values obtained were also compared to the controls which received only piroxicam by the two-tailed Student's T-Test for nonpaired data.", "note": "Counter-ions that a name gives are not always drawn."}
{"compound": "O[C@H]1[C@H](O)[C@@H](O)[C@H](O)[C@@H](O)[C@H]1O", "note": "[Inositol, cis-1,2,3,4-trans-4,6-cyclohexanehexol]", "values": [{"measurement": "ED50", "setting": "Rattus norvegicus, 6.5 h, oral, linear regression analysis, lesions induced by 120 mg/kg piroxicam ethanolamine salt, read-out: ED50 (dose of inositol required to inhibit 50% of control gastric lesion)", "value": 85, "unit": "mg/kg"}, {"measurement": "Reduction of piroxicam-induced gastric lesions", "setting": "healthy fasted rat, statement in words", "value": "significantly reduces"}, {"measurement": "Significance p < 0.05", "setting": "inositol 10 mg/kg oral vs piroxicam-only control", "value": "+ (p < 0.05)"}, {"measurement": "Lesions/Rat (X +/- SE)", "setting": "inositol 10 mg/kg oral, with 120 mg/kg oral piroxicam ethanolamine salt, fasted male rats, 6.5 h, 40 rats", "value": "4.7 (0.9) Lesions/Rat"}, {"measurement": "Significance p < 0.05", "setting": "inositol 33 mg/kg oral vs piroxicam-only control", "value": "+ (p < 0.05)"}, {"measurement": "Lesions/Rat (X +/- SE)", "setting": "inositol 33 mg/kg oral, with 120 mg/kg oral piroxicam ethanolamine salt, fasted male rats, 6.5 h, 40 rats", "value": "5.2 (0.7) Lesions/Rat"}, {"measurement": "Significance p < 0.05", "setting": "inositol 100 mg/kg oral vs piroxicam-only control", "value": "+ (p < 0.05)"}, {"measurement": "Lesions/Rat (X +/- SE)", "setting": "inositol 100 mg/kg oral, with 120 mg/kg oral piroxicam ethanolamine salt, fasted male rats, 6.5 h, 40 rats", "value": "3.6 (0.6) Lesions/Rat"}, {"measurement": "Significance p < 0.05", "setting": "inositol 333 mg/kg oral vs piroxicam-only control", "value": "+ (p < 0.05)"}, {"measurement": "Lesions/Rat (X +/- SE)", "setting": "inositol 333 mg/kg oral, with 120 mg/kg oral piroxicam ethanolamine salt, fasted male rats, 6.5 h, 40 rats", "value": "3.0 (0.8) Lesions/Rat"}]}
{"compound": "CN1C(C(=O)Nc2ccccn2)=C(O)c2ccccc2S1(=O)=O", "note": "[ethanolamine salt of piroxicam]", "values": [{"measurement": "Lesions/Rat (X +/- SE)", "setting": "control: 120 mg/kg oral piroxicam ethanolamine salt alone, inositol 0 mg/kg, 6.5 h, 30 rats", "value": "7.5 (0.8) Lesions/Rat"}]}
